Source: publication PMC12040169 (PLOS Biology, 2025)

Assay: in vitro
Details: human, hela cells, % viability

Row | SMILES | viability at 28.5 h, 10 µM
1 | CC(C)(C)c1cc(N2C(=O)C(O)=C(C(=O)c3ccc(Cl)cc3)C2c2cccc([N+](=O)[O-])c2)no1 (stereo not shown) [CBK263470] | 92.8%
2 | NS(=O)(=O)c1cnccc1NCCc1ccccc1 [CBK058003] | 103%
3 | O=C(c1cncnc1)N1CC[C@H](c2nc3cc(F)ccc3[nH]2)C1 [CBK289376] | 96.8%
4 | COc1ccc(Br)cc1CN(CCc1ccc2c(c1)OCO2)Cc1cccnc1 [CBK263327G] | 96.8%
5 | CCOc1ccc(S(=O)(=O)N2CCCCC2)cc1-c1nc2c(C(C)(C)C)nn(C)c2c(=O)[nH]1 [CBK265119] | 113%
6 | CC1CCN(Cc2c(-c3cccnc3)[nH]c3cccnc23)CC1 [CBK281494] | 98.8%
7 | O=C(Nc1cncc(OC2CCNCC2)n1)c1cnc2ccccc2c1 [CBK036377T] | 92.8%
8 | CC(=O)Nc1nc(C)c(S(=O)(=O)Nc2nc(C(C)C)ns2)s1 [CBK051227] | 90.9%
9 | Cn1nccc1CN1CCCC(COc2ccc(F)cc2)C1 (stereo not shown) [CBK281899] | 95.2%
10 | O=C(O)c1csc(S(=O)(=O)Nc2ccc(Br)cc2Cl)c1 [CBK297731] | 101%
11 | CN1CCOc2cc(S(=O)(=O)Nc3cccc(-c4cnco4)c3)ccc21 [CBK067119] | 82.9%
12 | O=C(Cn1nnc2ccccc21)N/N=C\c1cccc(Cl)c1Cl [CBK262931] | 92.4%
13 | c1ccc(-c2c(-c3ccccc3)n(Cc3ccco3)c3ncn4nc(-c5ccncc5)nc4c23)cc1 [CBK265298] | 89.6%
14 | Cn1cc([C@@H]2CN(Cc3cccs3)C[C@H]2N)c2ccncc21 [CBK285320] | 98.9%
15 | CO[C@@H]1CO[C@H]2[C@@H]1OC[C@@H]2NC(=O)Nc1ccc(C(C)=O)cc1 [CBK289462] | 106%
16 | Cc1ccc(NC2=N[C@H]3[C@@H](O)[C@H](O)C[C@H](C(=O)N4CCCCC4)[C@H]3S2)cc1 [CBK288951] | 94.7%
17 | COc1cccc(NC(=O)CC(CN2CCN(Cc3ccccn3)CC2)C(=O)O)c1 (stereo not shown) [CBK286735] | 85.1%
18 | CCOC(=O)c1ccoc1C[N+](C)(CC)CC [CBK007022I] | 83.7%
19 | NS(=O)(=O)c1ccc(NC(=S)NC(=O)c2ccc(Cl)cc2Cl)cc1 [CBK266265] | 94%
20 | Cn1cc(C2CNCCN2C(=O)CCCc2csc3ccccc23)cn1 (stereo not shown) [CBK304274C] | 89.9%
21 | CN(CC1COCCO1)C(=O)c1cc(Cn2ccc3ccccc32)[nH]n1 (stereo not shown) [CBK307673] | 111%
22 | Cc1ccc(C)c(-c2csc(NS(=O)(=O)c3cccc(C(=O)O)c3)n2)c1 [CBK296696] | 86.7%

Row | SMILES | viability at 28.5 h, 10 µM
23 | CC1(C)CC(=O)c2c(O)cc(OCC(=O)c3ccc(Cl)c(Cl)c3)cc2O1 [CBK267573] | 89.1%
24 | CN(C)c1ccccc1-c1cnc(N2CCOCC2)c2nccn12 [CBK091280] | 90.7%
25 | COC(=O)c1cc(NC(=O)CC2Sc3ccccc3NC2=O)cc(C(=O)OC)c1 (stereo not shown) [CBK266260] | 99.6%
26 | O=C(/C=C/c1ccccc1)NC(=S)Nc1ccc2oc(-c3ccncc3)nc2c1 [CBK263687] | 93.8%
27 | CCCCn1nccc1NC(=O)NC(C)c1n[nH]c(C)n1 (stereo not shown) [CBK307486] | 99.4%
28 | CN1CCN(c2cc(-c3ccccc3N(C)C)nc3ccnn23)CC1 [CBK037158] | 108%
29 | CN(C)C(=O)CSc1cnc2ccccc2n1 [CBK086626] | 86.3%
30 | O=C(NCCN1CCCCC1)c1cccc(Oc2ccccc2)c1 [CBK270335] | 98.2%
31 | Cc1nc[nH]c1CN1CCCN(S(=O)(=O)c2ccc(-n3cnc(Cl)c3Cl)cc2)CC1 [CBK063087] | 91.7%
32 | Cc1ccc(C(=O)N(C)CCN(C)C)c(NCc2cccnc2)n1 [CBK076348] | 91.5%
33 | Cc1cc(C)n(CC2CN(CC(=O)NCc3ccccn3)CCO2)n1 (stereo not shown) [CBK305344] | 107%
34 | COc1ccc([N+](=O)[O-])c(N2CCOC3(CCN(C(=O)OCc4ccccc4)CC3)C2)n1 [CBK161117T] | 103%
35 | Oc1cc2nnnn2nc1-c1ccccc1 [CBK019550] | 101%
36 | OC(CNCCc1ccccc1)COc1c(Br)cccc1Br (stereo not shown) [CBK003071] | 94%
37 | CN(Cc1cnn(C)c1)C(=O)C1CCCN1Cc1ccccn1 (stereo not shown) [CBK305092] | 96%
38 | CCNC(=O)c1cnc(-c2ccc(F)cc2)c(-c2ccncc2)c1 [CBK037477] | 101%
39 | Brc1cccc(/C=N/N2CCN(Cc3cccc4ccccc34)CC2)c1 [CBK263011] | 98%
40 | O=C(NCC1CCN(c2ccc(F)c(F)c2)C1)c1c[nH]nc1C1CC1 (stereo not shown) [CBK305409] | 91%
41 | O=C(CN(c1cc(Cl)ccc1Cl)S(=O)(=O)c1ccccc1)Nc1cccnc1 [CBK268708] | 59.3%
42 | CN(C)CCNC(=O)C1CCCN(c2nc3c(-c4ccccc4)csc3c(=O)[nH]2)C1 (stereo not shown) [CBK215501] | 88.3%
43 | Cc1cc(C)c(S(=O)(=O)Nc2nnc(C)s2)c(C)c1 [CBK045497] | 87.5%
44 | CCN(CC)c1cc(N2CCCNCC2)ccc1S(=O)(=O)c1cccc(F)c1 [CBK018509C] | 101%

Row | SMILES | viability at 28.5 h, 10 µM
45 | COc1ccc(Cc2nc(C3CC3)n(CC(F)(F)F)n2)cc1 [CBK307686] | 94.9%
46 | O=C(O)c1cccc(-c2nccnc2NCC2CC2)c1 [CBK038043] | 95.5%
47 | COCCN(Cc1nnc(-c2cccs2)o1)C(C(=O)N1CCOCC1)c1ccccc1 (stereo not shown) [CBK295190] | 104%
48 | CC(Sc1nc(N)cc(N)n1)C(=O)c1ccc(F)c(F)c1 (stereo not shown) [CBK296928] | 94.7%
49 | O=CN1CCc2c([nH]c3ccccc23)C12CCN(CC1CC1)CC2 [CBK040315] | 91.8%
50 | O=C(NCc1cccs1)c1ccc2[nH]ccc2c1 [CBK149060] | 83.3%
51 | Cc1cc(-c2cn3cc(C(=O)NCCN(C)C)nc3c(=O)n2C)c(C)o1 [CBK307160] | 94.3%
52 | O=C(c1ccco1)N1CCN(c2ccc(/C=C/c3ccccc3)cn2)CC1 [CBK037701] | 98.7%
53 | Cc1ccccc1C(=O)Nc1ccc(F)c(F)c1 [CBK058249] | 96.1%
54 | CC(O)CNCc1ccc(OCC(=O)NC(C)(C)C)cc1 (stereo not shown) [CBK270232C] | 87.1%
55 | COCCN(C)c1nc2c(c(=O)[nH]1)Cc1ccccc1OC2 [CBK306737] | 105%
56 | COCC(=O)N1CCN(C(=O)c2cccc(F)c2)C[C@H]1C(=O)OC [CBK289608] | 89.4%
57 | COC(=O)c1ccccc1NC(=O)CN(C)S(=O)(=O)c1c(C)cc(C)cc1C [CBK266241] | 110%
58 | O=C(Nc1sc2c(c1C(=O)O)CCC2)c1ccco1 [CBK152436] | 101%
59 | Cc1ccc2nc(CSc3ncnc4sc(C)cc34)[nH]c2c1 [CBK270047] | 97.1%
60 | Cc1cccc(C)c1OCC(=O)N1CCC(c2cc(C(=O)NC(C)C)c3ccccc3n2)C1 (stereo not shown) [CBK285916] | 112%
61 | COc1cc(C(F)(F)F)c(-c2ncn[nH]2)cn1 [CBK006362] | 101%
62 | CCCCCSc1c(C#N)nc(N2CCOCC2)c2c1CC(C)(C)OC2 [CBK021748] | 92.1%
63 | COc1cccc(-c2cncc(C3CN(Cc4cccc5ncccc45)CCO3)n2)c1 (stereo not shown) [CBK285973] | 102%
64 | Cc1nn(CC(=O)N2CCN(Cc3ccccn3)CC2)c(C)c1Cl [CBK305978] | 93.8%
65 | CC(=O)c1ccccc1-c1cnc(N(C)S(C)(=O)=O)c(C(=O)NCCc2ccccc2)c1 [CBK076516] | 93.9%
66 | CC(C)CNC(=O)C1CCN(C(=O)c2cccc(F)c2)CC1 [CBK304338] | 112%

Row | SMILES | viability at 28.5 h, 10 µM
67 | CCCC/C=C/c1nccnc1NCC1CC1 [CBK037268] | 100%
68 | O=C(c1ccco1)N1CCN(c2ncccn2)CC1 [CBK144524] | 111%
69 | CCCC/C=C/c1nccnc1NCCCO [CBK038006] | 102%
70 | CCN(CC)C(=O)CNS(=O)(=O)c1cc(Br)c(Cl)s1 [CBK034500] | 112%
71 | COc1ccc(CN(Cc2ccc(OC)cc2)Cc2ccc(S(=O)(=O)N3CCOC3=O)cc2)cc1 [CBK014818] | 110%
72 | CCOC(=O)c1ccccc1NC(=O)n1ccc2c(N3CCNCC3)cccc21 [CBK003731C] | 50.8%
73 | COc1ccnc(N2CCN(C(=O)c3c4c(nn3C)CCCC4)CC2)n1 [CBK304609] | 118%
74 | Cc1oc(C2CC2)cc1C(=O)N1CCC(c2ccncc2)CC1 [CBK283514] | 95.2%
75 | c1cnc2c(c1)cc([C@H]1CCCO1)n2CCN1CCCC1 [CBK282289] | 91.9%
76 | CS(=O)(=O)c1ccc(-c2nccnc2N2CCCCC2CO)cc1 (stereo not shown) [CBK037657] | 102%
77 | CCc1cccc2c(C=C3C(=O)N(CC(=O)O)C(=O)c4ccccc43)c[nH]c12 [CBK295153] | 81.5%
78 | C(=C\c1nccnc1OCc1ccccn1)/c1ccccc1 [CBK106874] | 105%
79 | Cc1c(F)cccc1CN1CCCN(S(=O)(=O)c2ccc(-c3ccccc3)cc2)CC1 [CBK062977] | 95.9%
80 | Cc1nc2n(n1)CCN(C(=O)Cc1c(C)[nH]c3ccc(F)cc13)C2 [CBK284355] | 83.1%
81 | O=C(/C=C/c1c[nH]c2ccccc12)c1ccc(C(=O)/C=C/c2c[nH]c3ccccc23)cc1 [CBK264224] | 106%
82 | COc1ccc(-c2cncc(N[C@@H](CO)C(C)C)n2)cc1 [CBK037941] | 82.8%
83 | CN(C)CCNC(=O)c1cccc(-c2cn3ccnc3c(NCc3ccccc3)n2)c1 [CBK066365] | 102%
84 | O=c1c2ccccc2c(-c2ccc(Cl)cc2)nn1-c1cc(N2CCNCC2)ccc1[N+](=O)[O-] [CBK265763] | 98.7%
85 | COc1ccc(C2=NN(c3ccc([N+](=O)[O-])cc3)C(=O)/C2=C\NCCN2CCOCC2)cc1 [CBK264563] | 114%
86 | Cn1ccnc1C(NC(=O)Cc1ccc(O)cc1)c1ccccc1 (stereo not shown) [CBK283723] | 87.9%
87 | COc1cc(C(=O)N2CCN(Cc3c[nH]c4ccccc34)CC2)cc(OC)c1OC [CBK301212G] | 77.7%
88 | CCCOC1CCCN(Cc2cn(CC(N)=O)c3ccccc23)C1 (stereo not shown) [CBK282796] | 105%
